The results in this text go back to ChEMBL document CHEMBL1147819, “Synthesis of 2-alkoxy-8-hydroxyadenylpeptides: towards synthetic epitope-based vaccines” (Bioorg Med Chem Lett, 2006).

Assay type in all cases: functional, cell-based
Holding throughout (settings): Homo sapiens

Assay [1] has as its system Dendritic cell. The experiment in a line: Induction of IL-12p40 in dendritic cells.
In assay [2] the test system is Dendritic cell. The experiment in a line: Induction of antigen presentation in dendritic cells.
Assay [3] concerns Dendritic cell. The experiment in a line: Inhibition of antigen presentation in dendritic cells.

Calls of active or inactive are those of the source. The calls are words filed in the database; no cut-off is given here. Residues, ends and D or L forms follow the SMILES beside them. *: point of attachment. X2 = C[C@H](N*)C(=O)N(C(=O)c1cn(CCOCCOCCOc2nc(N)c3nc(O)n(Cc4ccccc4)c3n2)nn1)[C@@H](CCCCN)C(N)=O; X1 = Nc1nc(OCCOCCOCCn2cc(C(=O)*)nn2)nc2c1nc(O)n2Cc1ccccc1

On to `COCCOc1nc(N)c2[nH]c(=O)n(Cc3ccccc3)c2n1`, for which the result in the assay on Dendritic cell [1] was Active.

In the case of `[N-]=[N+]=NCCOCCOCCOc1nc(N)c2[nH]c(=O)n(Cc3ccccc3)c2n1`, the outcome in the assay with Dendritic cell [1] was Active.

`CC[C@H](C)[C@H](NC(=O)[C@H](CO)NC(=O)[C@H](CCC(=O)O)NC(=O)[C@H](CC(C)C)NC(=O)[C@H](CCC(N)=O)NC(=O)[C@H](CCC(=O)O)NC(=O)[C@H](CC(C)C)NC(=O)CNC(=O)[C@H](CO)NC(=O)[C@@H](NC(=O)[C@H](CCC(=O)O)NC(=O)[C@@H](N)CC(=O)O)C(C)C)C(=O)N[C@H](C(=O)N[C@@H](CC(N)=O)C(=O)N[C@@H](Cc1ccccc1)C(=O)N[C@@H](CCC(=O)O)C(=O)N[C@@H](CCCCN)C(=O)N[C@@H](CC(C)C)C(=O)N[C@@H](C)C(=O)N[C@@H](C)C(=O)N[C@@H](C)C(=O)N[C@@H](C)C(=O)N[C@@H](C)C(=O)N(C(=O)c1cn(CCOCCOCCOc2nc(N)c3nc(O)n(Cc4ccccc4)c3n2)nn1)[C@@H](CCCCN)C(N)=O)[C@@H](C)CC` (H-DEVSGLEQLESIINFEKLAAAA-X2): the result with Dendritic cell [2] and in the assay with Dendritic cell [3] was Active.

On to `CC[C@H](C)[C@H](NC(=O)[C@H](CO)NC(=O)[C@H](CCC(=O)O)NC(=O)[C@H](CC(C)C)NC(=O)[C@H](CCC(N)=O)NC(=O)[C@H](CCC(=O)O)NC(=O)[C@H](CC(C)C)NC(=O)CNC(=O)[C@H](CO)NC(=O)[C@@H](NC(=O)[C@H](CCC(=O)O)NC(=O)[C@H](CC(=O)O)NC(=O)c1cn(CCOCCOCCOc2nc(N)c3nc(O)n(Cc4ccccc4)c3n2)nn1)C(C)C)C(=O)N[C@H](C(=O)N[C@@H](CC(N)=O)C(=O)N[C@@H](Cc1ccccc1)C(=O)N[C@@H](CCC(=O)O)C(=O)N[C@@H](CCCCN)C(=O)N[C@@H](CC(C)C)C(=O)O)[C@@H](C)CC` (X1-DEVSGLEQLESIINFEKL-OH), for which the outcome with Dendritic cell [2] and with Dendritic cell [3] was Active.

`CC[C@H](C)[C@H](NC(=O)[C@H](CO)NC(=O)[C@H](CCC(=O)O)NC(=O)[C@H](CC(C)C)NC(=O)[C@H](CCC(N)=O)NC(=O)[C@H](CCC(=O)O)NC(=O)[C@H](CC(C)C)NC(=O)CNC(=O)[C@H](CO)NC(=O)[C@@H](NC(=O)[C@H](CCC(=O)O)NC(=O)[C@H](CC(=O)O)NC(=O)c1cn(CCOCCOCCOc2nc(N)c3nc(O)n(Cc4ccccc4)c3n2)nn1)C(C)C)C(=O)N[C@H](C(=O)N[C@@H](CC(N)=O)C(=O)N[C@@H](Cc1ccccc1)C(=O)N[C@@H](CCC(=O)O)C(=O)N[C@@H](CCCCN)C(=O)N[C@@H](CC(C)C)C(=O)N[C@@H](C)C(=O)N[C@@H](C)C(=O)N[C@@H](C)C(=O)N[C@@H](C)C(=O)N[C@@H](C)C(=O)N[C@@H](CCCCN)C(N)=O)[C@@H](C)CC` (X1-DEVSGLEQLESIINFEKLAAAAAK-NH2): the result in the assay with Dendritic cell [2] and in the assay on Dendritic cell [3] was Active.
